Experimental data taken from US10221177B2 (HYDRA BIOSCIENCES, INC., priority 2014, dated 2019).

Target: human TRPA1 (Homo sapiens (Human), UniProt O75762)
Experiment: In vitro inhibition of human TRPA1, whole cell patch configuration
Format: cell-based
Details: current activation 10 μM AITC, tested concentrations 320 pM to 3.2 μM, read-out: hTRPA1 IC50
In short: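 Compound antagonism measured from voltage ramps (±100 or ±80 mV, 400 ms, every 4 s from −40 mV), analysed at −80 and 80 mV, or at constant −60 mV. HEPES-buffered NaCl bath, pH 7.4, EGTA or 2 mM Ca2+; temperature set by perfusion, within ±2° C; no junction-potential correction.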

human TRPA1, sequence (O75762 whole entry): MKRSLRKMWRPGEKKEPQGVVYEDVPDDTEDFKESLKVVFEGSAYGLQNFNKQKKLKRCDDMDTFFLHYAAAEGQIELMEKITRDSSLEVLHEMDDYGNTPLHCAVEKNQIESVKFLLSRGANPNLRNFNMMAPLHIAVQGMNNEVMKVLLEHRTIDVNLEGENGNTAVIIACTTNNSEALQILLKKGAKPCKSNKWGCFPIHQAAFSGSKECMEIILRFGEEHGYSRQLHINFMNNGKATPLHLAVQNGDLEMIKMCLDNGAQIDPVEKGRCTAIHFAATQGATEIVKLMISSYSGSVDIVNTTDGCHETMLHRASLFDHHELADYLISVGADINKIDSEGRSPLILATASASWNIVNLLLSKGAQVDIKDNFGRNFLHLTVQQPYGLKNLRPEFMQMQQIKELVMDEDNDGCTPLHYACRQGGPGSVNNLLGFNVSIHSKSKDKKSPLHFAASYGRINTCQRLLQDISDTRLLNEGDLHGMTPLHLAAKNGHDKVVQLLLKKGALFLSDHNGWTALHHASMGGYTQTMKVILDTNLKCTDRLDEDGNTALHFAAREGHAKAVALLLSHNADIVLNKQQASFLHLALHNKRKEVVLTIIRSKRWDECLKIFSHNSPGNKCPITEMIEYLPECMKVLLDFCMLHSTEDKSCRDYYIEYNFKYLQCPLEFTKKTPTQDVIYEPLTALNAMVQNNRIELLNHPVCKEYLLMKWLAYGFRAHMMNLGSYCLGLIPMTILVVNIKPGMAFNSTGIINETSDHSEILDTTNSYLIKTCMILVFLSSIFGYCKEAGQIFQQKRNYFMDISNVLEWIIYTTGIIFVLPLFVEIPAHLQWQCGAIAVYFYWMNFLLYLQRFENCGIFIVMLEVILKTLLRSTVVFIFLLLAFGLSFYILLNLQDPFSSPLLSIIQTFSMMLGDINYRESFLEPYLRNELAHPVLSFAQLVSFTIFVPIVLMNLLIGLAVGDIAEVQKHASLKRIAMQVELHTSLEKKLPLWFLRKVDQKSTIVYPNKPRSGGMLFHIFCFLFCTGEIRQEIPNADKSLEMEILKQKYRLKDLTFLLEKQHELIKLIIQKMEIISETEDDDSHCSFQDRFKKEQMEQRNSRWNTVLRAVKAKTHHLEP

SMILES: Cc1ncc(-c2nc(NC(=O)[C@H](C)n3cnc4c3c(=O)n(CC(F)(F)F)c(=O)n4C)cs2)cc1C(F)(F)F [Compound 162, (S)-2-(3-methyl-2,6-dioxo-1-(2,2,2-trifluoroethyl)-2,3-dihydro-1H-purin-7(6H)-yl)-N-(2-(6-methyl-5-(trifluoromethyl)pyridin-3-yl)thiazol-4-yl)propanamide]
- IC50: 22 nM

SMILES: CC(=O)Cn1c(=O)c2c(nc(C)n2CC(=O)Nc2cccc(-c3cnc(C(F)(F)F)nc3)n2)n(C)c1=O [Compound 194, 2-(3,8-dimethyl-2,6-dioxo-1-(2-oxopropyl)-1,2,3,6-tetrahydropurin-7-yl)-N-(6-(2-(trifluo-romethyl)pyrimidin-5-yl)pyridin-2-yl)acetamide]
- IC50: 62 nM

SMILES: Cc1cc(Cn2c(=O)c3c(ncn3[C@@H](C)C(=O)Nc3csc(-c4cnc(C)c(F)c4)n3)n(C)c2=O)no1 [Compound 100, (S)—N-(2-(5-fluoro-6-methylpyridin-3-yl)thiazol-4-yl)-2-(3-methyl-1-((5-methylisoxazol-3-yl)methyl)-2,6-dioxo-2,3-dihydro-1H-purin-7(6H)-yl)propanamide]
- IC50: 8 nM

SMILES: Cc1cc(Cn2c(=O)c3c(ncn3CC(=O)Nc3ccc(N4CCC(C(C)(C)F)CC4)cn3)n(C)c2=O)no1 [Compound 220, N-(5-(4-(2-fluoropropan-2-yl)piperidin-1-yl)pyridin-2-yl)-2-(3-methyl-1-((5-methylisoxazol-3-yl)methyl)-2,6-dioxo-2,3-dihydro-1H-purin-7(6H)-yl)acetamide]
- IC50: 72 nM

SMILES: Cc1cc(-c2nc(NC(=O)Cn3cnc4c3c(=O)n(CC(F)(F)F)c(=O)n4C)cs2)cnc1C(F)(F)F [Compound 251, 2-(3-methyl-2,6-dioxo-1-(2,2,2-trifluoroethyl)-2,3-dihydro-1H-purin-7(6H)-yl)-N-(2-(5-methyl-6-(trifluoromethyl)pyridin-3-yl)thiazol-4-yl)acetamide]
- IC50: 219 nM

SMILES: Cc1cc(Cn2c(=O)c3c(ncn3CC(=O)Nc3csc(-c4cnc(C)c(C(F)(F)F)c4)n3)n(C)c2=O)no1 [Compound 246, 2-(3-methyl-1-((5-methylisoxazol-3-yl)methyl)-2,6-dioxo-2,3-dihydro-1H-purin-7(6H)-yl)-N-(2-(6-methyl-5-(trifluoromethyl)pyridin-3-yl)thiazol-4-yl)acetamide]
- IC50: 1 nM

SMILES: CC(=O)Cn1c(=O)c2c(ncn2[C@@H](C)C(=O)Nc2ccnc(-c3ccc(N4CC5C(C4)C5(F)F)nc3)n2)n(C)c1=O (stereo partly drawn) [Compound 69, (2S)—N-(2-(6-(6,6-difluoro-3-azabicyclo[3.1.0]hexan-3-yl)pyridin-3-yl)pyrimidin-4-yl)-2-(3-methyl-2,6-dioxo-1-(2-oxopropyl)-2,3-dihydro-1H-purin-7(6H)-yl)propanamide]
- IC50: 7 nM

SMILES: Cc1ncc(-c2cccc(NC(=O)Cn3cnc4c3c(=O)n(CCO)c(=O)n4C)n2)cc1C(F)(F)F [Compound 237]
- IC50: 236 nM

SMILES: CC(=O)Cn1c(=O)c2c(nc(C)n2CC(=O)Nc2cccc(-c3cnc(N4CCC[C@H]4C(F)(F)F)nc3)n2)n(C)c1=O [Compound 195]
- IC50: 3 nM

SMILES: Cc1cc(Cn2c(=O)c3c(ncn3CC(=O)Nc3csc(-c4cnc(C(F)(F)F)nc4)n3)n(C)c2=O)no1 [Compound 259, 2-(3-methyl-1-((5-methylisoxazol-3-yl)methyl)-2,6-dioxo-2,3-dihydro-1H-purin-7(6H)-yl)-N-(2-(2-(trifluoromethyl)pyrimidin-5-yl)thiazol-4-yl)acetamide]
- IC50: 17 nM

SMILES: COCC(=O)Cn1c(=O)c2c(ncn2[C@@H](C)C(=O)Nc2cccc(-c3cnc(N4CC5CC5C4)cn3)n2)n(C)c1=O (stereo partly drawn) [Compound 266, (2S)—N-(6-(5-(3-azabicyclo[3.1.0]hexan-3-yl)pyrazin-2-yl)pyridin-2-yl)-2-(1-(3-methoxy-2-oxopropyl)-3-methyl-2,6-dioxo-2,3-dihydro-1H-purin-7(6H)-yl)propanamide]
- IC50: 7 nM

SMILES: Cc1ncc(-c2cccc(NC(=O)[C@H](C)n3cnc4c3c(=O)n(Cc3ccon3)c(=O)n4C)n2)cc1C(F)(F)F [Compound 136, (S)-2-(1-(isoxazol-3-ylmethyl)-3-methyl-2,6-dioxo-2,3-dihydro-1H-purin-7(6H)-yl)-N-(6′-methyl-5′-(trifluoromethyl)-[2,3′-bipyridin]-6-yl)propanamide]
- IC50: 3 nM

SMILES: CCCC(=O)Cn1c(=O)c2c(ncn2[C@@H](C)C(=O)Nc2cccc(-c3cnc(C(F)(F)F)nc3)n2)n(C)c1=O [Compound 52, (S)-2-(3-methyl-2,6-dioxo-1-(2-oxopentyl)-2,3-dihydro-1H-purin-7(6H)-yl)-N-(6-(2-(trifluoromethyl)pyrimidin-5-yl)pyridin-2-yl)propanamide]
- IC50: 23 nM

SMILES: Cc1cc(Cn2c(=O)c3c(ncn3CC(=O)Nc3ccc4ccccc4n3)n(C)c2=O)no1 [Compound 199, 2-(3-Methyl-1-((5-methylisoxazol-3-yl)methyl)-2,6-dioxo-2,3-dihydro-1H-purin-7(6H)-yl)-N-(quinolin-2-yl)acetamide]
- IC50: 404 nM

SMILES: C[C@@H](C(=O)Nc1cncc(-c2cnc(N3CCC[C@H]3C(F)(F)F)nc2)n1)n1cnc2c1c(=O)n(CC#N)c(=O)n2C [Compound 48, (S)-2-(1-(cyanomethyl)-3-methyl-2,6-dioxo-2,3-dihydro-1H-purin-7(6H)-yl)-N-(6-(2-((S)-2-(trifluoromethyl)pyrrolidin-1-yl)pyrimidin-5-yl)pyrazin-2-yl)propanamide]
- IC50: 7 nM

SMILES: CCC(=O)Cn1c(=O)c2c(ncn2[C@@H](C)C(=O)Nc2csc(-c3cnc(C(F)(F)F)c(C)c3)n2)n(C)c1=O [Compound 83, (S)-2-(3-methyl-2,6-dioxo-1-(2-oxobutyl)-2,3-dihydro-1H-purin-7(6H)-yl)-N-(2-(5-methyl-6-(trifluoromethyl)pyridin-3-yl)thiazol-4-yl)propanamide]
- IC50: 2 nM

SMILES: Cc1ncc(-c2cccc(NC(=O)Cn3cnc4c3c(=O)n(CCCO)c(=O)n4C)n2)cc1C(F)(F)F [Compound 236, 2-(1-(3-hydroxypropyl)-3-methyl-2,6-dioxo-2,3-dihydro-1H-purin-7(6H)-yl)-N-(6′-methyl-5′-(trifluoromethyl)-[2,3′-bipyridin]-6-yl)acetamide]
- IC50: 711 nM

SMILES: CC(=O)Cn1c(=O)c2c(ncn2[C@@H](C)C(=O)Nc2ncsc2-c2cnc(C(F)(F)F)nc2)n(C)c1=O [Compound 154, (S)-2-(3-methyl-2,6-dioxo-1-(2-oxopropyl)-2,3-dihydro-1H-purin-7(6H)-yl)-N-(5-(2-(trifluoromethyl)pyrimidin-5-yl)thiazol-4-yl)propanamide]
- IC50: > 3200 nM

SMILES: C[C@@H](C(=O)Nc1cncc(-c2ccc(N3CC4C(C3)C4(F)F)nc2)n1)n1cnc2c1c(=O)n(CC#N)c(=O)n2C (stereo partly shown) [Compound 77]
- IC50: 2 nM

SMILES: C[C@@H](C(=O)Nc1ccnc(-c2cnc(N3CCC[C@H]3C(F)(F)F)nc2)n1)n1cnc2c1c(=O)n(CC#N)c(=O)n2C [Compound 54, (S)-2-(1-(cyanomethyl)-3-methyl-2,6-dioxo-2,3-dihydro-1H-purin-7(6H)-yl)-N-(2′-((S)-2-(trifluoromethyl)pyrrolidin-1-yl)-2,5′-bipyrimidin-4-yl)propanamide]
- IC50: 7 nM

SMILES: COCC(=O)Cn1c(=O)c2c(ncn2[C@@H](C)C(=O)Nc2cccc(-c3cnc(N4CC5C(C4)C5(F)F)cn3)n2)n(C)c1=O (stereo partly shown) [Compound 272]
- IC50: 7 nM

SMILES: CCC(=O)Cn1c(=O)c2c(ncn2CC(=O)Nc2cncc(-c3cnc(C(F)(F)F)c(C)c3)n2)n(C)c1=O [Compound 233, 2-(3-methyl-2,6-dioxo-1-(2-oxobutyl)-2,3-dihydro-1H-purin-7(6H)-yl)-N-(6-(5-methyl-6-(trifluoromethyl)pyridin-3-yl)pyrazin-2-yl)acetamide]
- IC50: 10 nM

SMILES: CC(=O)Cn1c(=O)c2c(ncn2[C@@H](C)C(=O)Nc2cccc(-c3cnc(C(F)(F)F)nc3)n2)n(C)c1=O [Compound 4, (S)-2-(3-methyl-2,6-dioxo-1-(2-oxopropyl)-2,3-dihydro-1H-purin-7(6H)-yl)-N-(6-(2-(trifluoromethyl)pyrimidin-5-yl)pyridin-2-yl)propanamide]
- IC50: 25 nM

SMILES: Cc1cc(Cn2c(=O)c3c(ncn3[C@@H](C)C(=O)Nc3cncc(-c4cncc(C(F)(F)F)c4)n3)n(C)c2=O)no1 [Compound 55, (S)-2-(3-methyl-1-((5-methylisoxazol-3-yl)methyl)-2,6-dioxo-2,3-dihydro-1H-purin-7(6H)-yl)-N-(6-(5-(trifluoromethyl)pyridin-3-yl)pyrazin-2-yl)propanamide]
- IC50: 5 nM

SMILES: CC(=O)Cn1c(=O)c2c(ncn2[C@@H](C)C(=O)Nc2csc(-c3cnc(C)c(F)c3)n2)n(C)c1=O [Compound 92, (S)—N-(2-(5-fluoro-6-methylpyridin-3-yl)thiazol-4-yl)-2-(3-methyl-2,6-dioxo-1-(2-oxopropyl)-2,3-dihydro-1H-purin-7(6H)-yl)propanamide]
- IC50: 33 nM

SMILES: CC(=O)Cn1c(=O)c2c(ncn2[C@@H](C)C(=O)Nc2cccc(-c3ccc(N4CC5CC5C4)nc3)n2)n(C)c1=O (stereo partly drawn) [Compound 44, (2S)—N-(6′-(3-azabicyclo[3.1.0]hexan-3-yl)-2,3′-bipyridin-6-yl)-2-(3-methyl-2,6-dioxo-1-(2-oxopropyl)-2,3-dihydro-1H-purin-7(6H)-yl)propanamide]
- IC50: 14 nM

SMILES: CC(=O)Cn1c(=O)c2c(ncn2[C@@H](C)C(=O)Nc2csc(-c3cnc(C(F)(F)F)c(C)c3)n2)n(C)c1=O [Compound 82, (S)-2-(3-methyl-2,6-dioxo-1-(2-oxopropyl)-2,3-dihydro-1H-purin-7(6H)-yl)-N-(2-(5-methyl-6-(trifluoromethyl)pyridin-3-yl)thiazol-4-yl)propanamide]
- IC50: 5 nM

SMILES: CCC(=O)Cn1c(=O)c2c(ncn2[C@@H](C)C(=O)Nc2cccc(-c3cnc(N4CC5CC5C4)nc3)n2)n(C)c1=O (stereo partly drawn) [Compound 147, (2S)—N-(6-(2-(3-azabicyclo[3.1.0]hexan-3-yl)pyrimidin-5-yl)pyridin-2-yl)-2-(3-methyl-2,6-dioxo-1-(2-oxobutyl)-2,3-dihydro-1H-purin-7(6H)-yl)propanamide]
- IC50: 6 nM
